Reference: publication PMC3170524 (Physiological research / Academia Scientiarum Bohemoslovaca, 2010)
Positions count from the first letter of the chain named.

Assays:
Test in all cases: whole-cell patch clamp, peak current dose-response
Format in all cases: cell-based
rat P2X4R [1] = biological target: T1, rat P2X4R (Rattus norvegicus, UniProt P51577, C261A)
T1 sequence (P51577 1-388 C261A): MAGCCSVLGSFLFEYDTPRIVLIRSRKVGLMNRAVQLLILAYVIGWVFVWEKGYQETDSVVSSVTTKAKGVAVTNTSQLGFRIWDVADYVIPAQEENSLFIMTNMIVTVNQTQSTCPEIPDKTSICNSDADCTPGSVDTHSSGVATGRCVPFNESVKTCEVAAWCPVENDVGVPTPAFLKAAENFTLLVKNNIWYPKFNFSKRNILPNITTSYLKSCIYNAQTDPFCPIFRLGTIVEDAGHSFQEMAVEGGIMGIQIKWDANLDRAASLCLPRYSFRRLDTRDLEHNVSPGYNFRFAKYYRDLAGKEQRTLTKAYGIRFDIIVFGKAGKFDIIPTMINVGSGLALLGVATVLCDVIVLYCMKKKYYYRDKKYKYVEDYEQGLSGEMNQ

rat P2X4R [2] = biological target: T2, rat P2X4R (Rattus norvegicus, UniProt P51577, C116T/C165T)
T2 sequence (P51577 1-388 C116T/C165T): T1 sequence (P51577 1-388 C261A) with C116T, C165T, A261C

rat P2X4R [3] = biological target: T3, rat P2X4R (Rattus norvegicus, UniProt P51577, C132A)
T3 sequence (P51577 1-388 C132A): T1 sequence (P51577 1-388 C261A) with C132A, A261C

rat P2X4R [4] = biological target: T4, rat P2X4R (Rattus norvegicus, UniProt P51577, C159A)
T4 sequence (P51577 1-388 C159A): T1 sequence (P51577 1-388 C261A) with C159A, A261C

rat P2X4R [5] = biological target: T5, rat P2X4R (Rattus norvegicus, UniProt P51577, C217R)
T5 sequence (P51577 1-388 C217R): T1 sequence (P51577 1-388 C261A) with C217R, A261C

rat P2X4R [6] = biological target: T6, rat P2X4R (Rattus norvegicus, UniProt P51577, C159T)
T6 sequence (P51577 1-388 C159T): T1 sequence (P51577 1-388 C261A) with C159T, A261C

rat P2X4R [7] = biological target: T7, rat P2X4R (Rattus norvegicus, UniProt P51577, C132T)
T7 sequence (P51577 1-388 C132T): T1 sequence (P51577 1-388 C261A) with C132T, A261C

Question: How did the EC50 (rat P2X4R [1]) turn out when `Nc1ncnc2c1ncn2[C@@H]1O[C@H](COP(=O)(O)OP(=O)(O)OP(=O)(O)O)[C@@H](O)[C@H]1O` [ATP] was run?
Answer: 5.5 ± 1.7 µM

Question: And the EC50 (rat P2X4R [2])?
Answer: 57 ± 19 µM

Question: What about the EC50 (rat P2X4R [3]) of the same compound?
Answer: 14 ± 4.1 µM

Question: What about the EC50 (rat P2X4R [4]) of the same compound?
Answer: 5.1 ± 1.4 µM

Question: What about the EC50 (rat P2X4R [5]) of the same compound?
Answer: 9.2 ± 2.3 µM

Question: And the EC50 (rat P2X4R [6])?
Answer: 12 ± 4.1 µM

Question: What about the EC50 (rat P2X4R [7]) of the same compound?
Answer: 8.2 ± 2.1 µM
